Drawing on ChEMBL document CHEMBL1130086, “Potent HIV protease inhibitors containing a novel (hydroxyethyl)amide isostere” (J Med Chem, 1997), this text covers IC50, EC50 and Ki for 25 compounds.

In assay [1] the target is T1, Human immunodeficiency virus type 1 protease (Human immunodeficiency virus 1, UniProt Q72874). As to the kind of experiment: Inhibitory concentration against recombinant HIV-1 protease expressed in Escherichia coli was tested by HPLC based assay.
The test system of assay [2] is Human immunodeficiency virus 1. Put plainly: Inhibitory concentration against HIV-1 strain 111B in acutely infected C8166 T cells. The class given is functional, organism-based. Conditions: Human immunodeficiency virus 1, C8166.
Assay [3] deals with T1, Human immunodeficiency virus type 1 protease. Put plainly: binding affinity against HIV-1 protease.
Assay [4] has the same target. As to the kind of experiment: Inhibitory concentration against recombinant HIV-1 111B protease expressed from Escherichia coli was tested by HPLC based assay.
The test system of assay [5] is C8166. As to the kind of experiment: Inhibitory concentration against HIV-2 rod strain in acutely infected C8166 T cells. The class given is functional, cell-based. To be noted: Homo sapiens.
Assay [6] addresses T1, Human immunodeficiency virus type 1 protease. Put plainly: binding affinity against HIV-1 111B strain in protease.

Broadly, the IC50 is the midpoint of a concentration-inhibition curve. The EC50 is the concentration that produces a half-maximal response. As a reminder, the Ki is the dissociation constant of the complex between target and ligand, obtained from inhibition or displacement. Low readings indicate a stronger hold on the target, high ones a looser hold on the target.

In the case of `CCC(CC)NC(=O)C[C@@H](C(=O)NC[C@@H](O)[C@H](Cc1ccccc1)NC(=O)[C@@H](NC(=O)c1cnc2ccccc2n1)C(C)C)C(C)(C)C`, in assay [1], the IC50 is 2.2 nM. For the same compound, in assay [2], it took 5.8 nM to reach a half-maximal effect (EC50). Consider `CC(C)[C@H](NC(=O)OCc1ccccc1)C(=O)N[C@@H](Cc1ccccc1)[C@H](O)CN1CCCC[C@H]1C(=O)NC(C)(C)C`, for which, in assay [1], the IC50 stood at 62 nM.

With `CC(C)(C)[C@@H](CC(=O)NC1CCCCC1)C(=O)NC[C@@H](O)[C@H](Cc1ccccc1)NC(=O)OCc1ccccc1`, the IC50 in assay [1] came out at 135 nM. `CC(C)(C)NC(=O)C[C@@H](C(=O)NC[C@@H](O)[C@H](Cc1ccccc1)NC(=O)OCc1ccccc1)C(C)(C)C`: the IC50 in assay [1] came out at 19 nM. For the compound `CCC(CC)NC(=O)C[C@@H](C(=O)NC[C@@H](O)[C@H](Cc1ccccc1)NC(=O)[C@H](CC(N)=O)NC(=O)c1ccc2ccccc2n1)C(C)(C)C`, in assay [1], the IC50 stood at 2.2 nM. Moreover, a half-maximal response in assay [2] (EC50) required 11 nM. Taken in the same sequence, the figures for `CCC(CC)NC(=O)C[C@@H](C(=O)NC[C@@H](O)[C@H](Cc1ccccc1)NC(=O)[C@H](CC(N)=O)NC(=O)OCc1ccccc1)C(C)(C)C` were 3.8 nM and 127 nM.

In the case of `CCC(CC)NC(=O)C[C@@H](C(=O)NC[C@@H](O)[C@H](Cc1ccccc1)NC(=O)OCc1ccccc1)C(C)(C)C`, the IC50 in assay [1] amounted to 15 nM. The same measure, in the same setting: as for `CC(C)[C@H](NC(=O)OCc1ccccc1)C(=O)N[C@@H](Cc1ccccc1)[C@H](O)CNC(=O)[C@@H](CC(=O)NC(C)(C)C)C(C)(C)C`, the figure is 25 nM. Regarding `CCC(CC)NC(=O)C[C@@H](C(=O)NC[C@@H](O)[C@H](Cc1ccccc1)NC(=O)[C@@H](NC(=O)c1cnc2ccccc2n1)[C@H](C)O)C(C)(C)C`, in assay [1], the IC50 is 3 nM. Moreover, the response in assay [2] was half-maximal at 13 nM (EC50).

With `CCC(CC)NC(=O)C[C@@H](C(=O)NC[C@@H](O)[C@H](Cc1ccccc1)NC(=O)[C@@H](NC(=O)c1ccc2ccccc2n1)[C@H](C)O)C(C)(C)C`, in assay [1], the concentration for half-maximal inhibition (IC50) turned out to be 3.6 nM. In assay [2], the EC50 was 7 nM.

Regarding `CC(C)[C@H](NC(=O)OCc1ccccc1)C(=O)N[C@@H](Cc1ccccc1)[C@@H](O)CNC(=O)[C@H](CC(=O)NC(C)(C)C)C(C)(C)C`, the half-inhibitory concentration (IC50) in assay [1] came to 50 nM. Still for that read-out and setting: with `CC(C)C(NC(=O)C[C@@H](C(=O)NC[C@@H](O)[C@H](Cc1ccccc1)NC(=O)OCc1ccccc1)C(C)(C)C)C(C)C` the figure was 58 nM. For the compound `CCC(CC)NC(=O)C[C@@H](C(=O)NC[C@@H](O)[C@H](Cc1ccccc1)NC(=O)[C@@H](NC(=O)c1ccc2ccccc2n1)C(C)C)C(C)(C)C`, the IC50 in assay [1] is 2.5 nM. Moreover, in assay [3], the Ki amounted to 0.0075 nM. Besides, the EC50 in assay [2] stood at 3.7 nM. Regarding `CCCC(CCC)NC(=O)C[C@@H](C(=O)NC[C@@H](O)[C@H](Cc1ccccc1)NC(=O)OCc1ccccc1)C(C)(C)C`, the IC50 in assay [1] amounted to 39 nM. The same measure, in the same setting: as for `CC(C)[C@H](NC(=O)OCc1ccccc1)C(=O)N[C@@H](Cc1ccccc1)[C@H](O)CNC(=O)CCC(=O)NC(C)(C)C`, the figure is 8250 nM. Regarding `CC(C)[C@H](NC(=O)OCc1ccccc1)C(=O)N[C@@H](Cc1ccccc1)[C@H](O)CNC(=O)C[C@H](C(=O)NC(C)(C)C)C(C)(C)C`, the IC50 in assay [1] stood at 4850 nM.

For `CC(C)[C@H](NC(=O)c1ccc2ccccc2n1)C(=O)N[C@@H](Cc1ccccc1)[C@H](O)CN1CC[C@@H](OCc2ccncc2)C[C@H]1C(=O)NC(C)(C)C`, in assay [4], the IC50 was 4 nM. Moreover, the EC50 in assay [5] worked out at 25 nM; in assay [2], 5 nM. The compound also gave a Ki in assay [6] of 0.031 nM. As to `CCC(CC)NC(=O)C[C@@H](C(=O)NC[C@@H](O)[C@H](Cc1ccccc1)NC(=O)[C@@H](NC(=O)OCc1ccccc1)C(C)C)C(C)(C)C`, the IC50 in assay [1] was 2.9 nM. In addition, in assay [2], the EC50 was found to be 9.3 nM. `CC(C)[C@H](NC(=O)OCc1ccccc1)C(=O)N[C@@H](Cc1ccccc1)[C@H](O)CNC(=O)C[C@@H](C(=O)NC(C)(C)C)C(C)(C)C`: in assay [1], the IC50 was found to be 125 nM. `CC(C)(C)[C@@H](CC(=O)Nc1ccccc1)C(=O)NC[C@@H](O)[C@H](Cc1ccccc1)NC(=O)OCc1ccccc1`: the IC50 in assay [1] was determined as 14 nM. As for `CC(C)[C@H](NC(=O)OCc1ccccc1)C(=O)N[C@@H](Cc1ccccc1)[C@H](O)CNC(=O)C1CCCC[C@H]1C(=O)NC(C)(C)C` (some centres undefined), the IC50 in assay [1] was found to be 140 nM. With `CC(C)[C@H](NC(=O)OCc1ccccc1)C(=O)N[C@@H](Cc1ccccc1)[C@H](O)CNC(=O)[C@H](CC(=O)NC(C)(C)C)C(C)(C)C`, the IC50 in assay [1] turned out to be 3 nM. In addition, the concentration giving a half-maximal response (EC50) in assay [2] is 15 nM. Taken in the same sequence, the figures for `CCC(CC)NC(=O)C[C@@H](C(=O)NC[C@@H](O)[C@H](Cc1ccccc1)NC(=O)[C@H](CC(N)=O)NC(=O)c1cnc2ccccc2n1)C(C)(C)C` were 1.9 nM and 35 nM. In the case of `CC(C)NC(=O)C[C@@H](C(=O)NC[C@@H](O)[C@H](Cc1ccccc1)NC(=O)OCc1ccccc1)C(C)(C)C`, the IC50 in assay [1] stood at 19 nM. As for `CCC(CC)NC(=O)C[C@@H](C(=O)NC[C@@H](O)[C@H](Cc1ccccc1)NC(=O)[C@@H](NC(=O)OCc1ccccc1)[C@H](C)O)C(C)(C)C`, the IC50 in assay [1] was determined as 8.2 nM. This compound also returned an EC50 in assay [2] of 165 nM.
